Data as given in patent publication US11760722B2 (priority 2022, dated 2023).
Values joined by “and” are separate entries in the source; they are usually repeats but may differ in a detail not shown here. Equal values may be shown once. Read-outs that look alike come from different tables or passages of the source.

Experiments:
[1] = system: SARS-CoV-2 replicon; experiment: microbe, parasite or virus in culture; assay type: cell-based; settings: read-out: Replicon EC50
[2] = system: human coronavirus (HCoV) 229E; experiment: microbe, parasite or virus in culture; assay type: cell-based, human coronavirus 229E; settings: MRCS cells, HCoV 229E, 3 days, CellTiter Glo, read-out: 229E CPE EC50
Protocol: Test compounds were provided by the sponsor. Reference compound remdesivir was provided by WuXi AppTec. Compounds were assayed at 8 concentrations (to be defined by sponsor), in duplicate wells.
MRCS cells were obtained from the ATCC, and maintained in the Minimum Essential Medium supplemented with 10% FBS, 1% L-glutamine, 1% NEAA and 1% penicillin-streptomycin. Minimum Essential Medium supplemented with 5% FBS, 1% L-glutamine, 1% NEAA and 1% penicillin-streptomycin was used as the assay medium.
Cells were seeded in 96 well plates, in 100 μl per well of assay medium, and cultured at 37° C. and 5% CO2 overnight. Next day, test compound was diluted with assay medium and then added into the cells, 50 μl per well. Then 50 μl per well of assay medium diluted virus was added. The final volume of the cell culture was 200 μl per well. […] The CPE were measured by CellTiter Glo following the manufacturer's manual. The antiviral activity of compounds was calculated based on the protection of the virus-induced CPE at each concentration normalized by the virus control.
EC50 and CC50 values were calculated using the GraphPad Prism software using the nonlinear regression model of log(inhibitor) vs. response—Variable slope (four parameters).

[3] = Severe acute respiratory syndrome coronavirus 2, Huh-7, 24 h
[4] = unidentified human coronavirus, 72 h

SMILES | EC50 [1, 3] | EC50 [2, 4] | EC50 [1] | EC50 [2]
CC(C)(C)[C@H](NC(=O)c1ccc2ccccc2c1)C(=O)N1C[C@H]2[C@@H]([C@H]1C(=O)N[C@H](C#N)C[C@@H]1CCNC1=O)C2(C)C [Compound 106] | 860 nM | 4020 nM | – | –
CC(C)(C)[C@H](NC(=O)C(F)(F)C(F)(F)Cl)C(=O)N1C[C@H]2[C@@H]([C@H]1C(=O)N[C@H](C#N)C[C@@H]1CCNC1=O)C2(C)C [Compound 80] | 6.5 nM | 92 nM | 13 nM | 116 nM
COc1ccc(S(=O)(=O)N[C@H](C(=O)N2C[C@H]3[C@@H]([C@H]2C(=O)N[C@H](C#N)C[C@@H]2CCNC2=O)C3(C)C)C(C)(C)C)cc1 [Compound 101] | 24 nM | 514 nM | 41 nM | 910 nM
CN(C)C(C)(C)C(=O)N[C@H](C(=O)N1C[C@H]2[C@@H]([C@H]1C(=O)N[C@H](C#N)C[C@@H]1CCNC1=O)C2(C)C)C(C)(C)C [Compound 104] | > 10000 nM | 12700 nM | – | –
CC(C)c1cc(C(C)C)c(S(=O)(=O)N[C@H](C(=O)N2C[C@H]3[C@@H]([C@H]2C(=O)N[C@H](C#N)C[C@@H]2CCNC2=O)C3(C)C)C(C)(C)C)c(C(C)C)c1 [Compound 134] | 7990 nM | > 30000 nM | > 10000 nM | –
CC(C)(C)[C@H](NC(=O)NC1(CS(=O)(=O)C(C)(C)C)CCCCC1)C(=O)N1C[C@H]2[C@@H]([C@H]1C(=O)N[C@H](C#N)C[C@@H]1CCNC1=O)C2(C)C [Compound 16] | 1290 nM | 16800 nM | 1880 nM and 2040 nM | –
CC(C)(C)[C@H](NC(=O)c1ccc(F)cc1)C(=O)N1C[C@H]2[C@@H]([C@H]1C(=O)N[C@H](C#N)C[C@@H]1CCNC1=O)C2(C)C [Compound 94] | 960 nM | 4290 nM | – | –
CC(C)(C)[C@H](NC(=S)Nc1ccccc1)C(=O)N1C[C@H]2[C@@H]([C@H]1C(=O)N[C@H](C#N)C[C@@H]1CCNC1=O)C2(C)C [Compound 74] | 490 nM | 11500 nM | – | –
CC(C)(C)[C@H](NS(=O)(=O)c1ccc(OC(F)(F)F)cc1)C(=O)N1C[C@H]2[C@@H]([C@H]1C(=O)N[C@H](C#N)C[C@@H]1CCNC1=O)C2(C)C [Compound 89] | 140 nM | 322 nM | 160 nM | 468 nM
CC(C)(C)[C@H](NC(=O)C(F)(F)F)C(=O)N1C[C@H]2[C@@H]([C@H]1C(=O)N[C@H](/C=C/C#N)C[C@@H]1CCNC1=O)C2(C)C [Compound 103] | 650 nM | 16900 nM | – | –
CC(C#N)C(=O)N[C@H](C(=O)N1C[C@H]2[C@@H]([C@H]1C(=O)N[C@H](C#N)C[C@@H]1CCNC1=O)C2(C)C)C(C)(C)C (stereo partly drawn) [Compound 88] | 190 nM | 2500 nM | 250 nM | 4560 nM
CC(C)(C)[C@H](NC(=O)CC(F)(F)F)C(=O)N1C[C@H]2[C@@H]([C@H]1C(=O)N[C@H](C#N)C[C@@H]1CCNC1=O)C2(C)C [Compound 161] | 180 nM | 585 nM | – | –
COc1cc(/C=C/C(=O)N[C@H](C(=O)N2C[C@H]3[C@@H]([C@H]2C(=O)N[C@H](C#N)C[C@@H]2CCNC2=O)C3(C)C)C(C)(C)C)cc(OC)c1 [Compound 157] | 320 nM | 6940 nM | – | –
CC(C)(C)[C@H](NS(=O)(=O)CC#N)C(=O)N1C[C@H]2[C@@H]([C@H]1C(=O)N[C@H](C#N)C[C@@H]1CCNC1=O)C2(C)C [Compound 132] | 64 nM | 589 nM | 75 nM | 591 nM
CC1(C)[C@@H]2[C@@H](C(=O)N[C@H](C#N)C[C@@H]3CCNC3=O)N(C(=O)[C@@H](NC(=O)C(F)(F)F)c3ccc(F)cc3)C[C@@H]21 [Compound 105] | 650 nM | 6180 nM | – | –
CC(C)(C)[C@H](NC(=O)C12CC(C1)C2)C(=O)N1C[C@H]2[C@@H]([C@H]1C(=O)N[C@H](C#N)C[C@@H]1CCNC1=O)C2(C)C [Compound 20] | 186 nM | 2740 nM | 232 nM | –
CC1(NC(=S)N[C@H](C(=O)N2C[C@H]3[C@@H]([C@H]2C(=O)N[C@H](C#N)C[C@@H]2CCNC2=O)C3(C)C)C(C)(C)C)CC1 [Compound 126] | 24 nM | 193 nM | – | –
CC1(C)[C@@H]2[C@@H](C(=O)N[C@H](C#N)C[C@@H]3CCNC3=O)N(C(=O)[C@@H](NC(=O)C(F)(F)F)C34CC(C(F)(F)F)(C3)C4)C[C@@H]21 [Compound 91] | 330 nM | 10900 nM | – | –
CC(C)(C)[C@H](NS(=O)(=O)c1ccc(Cl)s1)C(=O)N1C[C@H]2[C@@H]([C@H]1C(=O)N[C@H](C#N)C[C@@H]1CCNC1=O)C2(C)C [Compound 54] | 54 nM | 106 nM | 58 nM | 127 nM
CC(C)(C)[C@H](NC(=S)NC1CCCC1)C(=O)N1C[C@H]2[C@@H]([C@H]1C(=O)N[C@H](C#N)C[C@@H]1CCNC1=O)C2(C)C [Compound 70] | 1790 nM | 4990 nM | – | –

SMILES | EC50 [1, 3] | EC50 [2, 4] | EC50 [1] | EC50 [2]
CC(C)(C)[C@H](NS(=O)(=O)c1ccns1)C(=O)N1C[C@H]2[C@@H]([C@H]1C(=O)N[C@H](C#N)C[C@@H]1CCNC1=O)C2(C)C [Compound 122] | 47 nM | 147 nM | 62 nM | –
CC(C)(C)[C@H](NC(=O)C(F)(F)Cl)C(=O)N1C[C@H]2[C@@H]([C@H]1C(=O)N[C@H](C#N)C[C@@H]1CCNC1=O)C2(C)C [Compound 141] | 4.8 nM | 68 nM | 7 nM | –
CC(C)(C)[C@H](NS(=O)(=O)C[C@@]12CC[C@@H](CC1=O)C2(C)C)C(=O)N1C[C@H]2[C@@H]([C@H]1C(=O)N[C@H](C#N)C[C@@H]1CCNC1=O)C2(C)C [Compound 86] | 4020 nM | 9630 nM | – | –
CC(C)(C)[C@H](NS(=O)(=O)C[C@]12CC[C@H](CC1=O)C2(C)C)C(=O)N1C[C@H]2[C@@H]([C@H]1C(=O)N[C@H](C#N)C[C@@H]1CCNC1=O)C2(C)C [Compound 98] | 3650 nM | 3310 nM | – | –
Cc1cc(S(=O)(=O)N[C@H](C(=O)N2C[C@H]3[C@@H]([C@H]2C(=O)N[C@H](C#N)C[C@@H]2CCNC2=O)C3(C)C)C(C)(C)C)sc1C [Compound 169] | 37 nM | 163 nM | – | –
CC(C)(C)[C@H](NC(=S)NC1CCC1)C(=O)N1C[C@H]2[C@@H]([C@H]1C(=O)N[C@H](C#N)C[C@@H]1CCN(C(=O)C(F)(F)F)C1=O)C2(C)C [Compound 125] | 68 nM | 708 nM | – | –
CNC(=O)N[C@H](C(=O)N1C[C@H](N(C)C)C[C@H]1C(=O)N[C@H](C#N)C[C@@H]1CCNC1=O)C(C)(C)C [Compound 128] | > 10000 nM | > 30000 nM | – | –
CN(C)C(=S)N[C@H](C(=O)N1C[C@H]2[C@@H]([C@H]1C(=O)N[C@H](C#N)C[C@@H]1CCNC1=O)C2(C)C)C(C)(C)C [Compound 77] | 4120 nM | 21100 nM | – | –
COC(=O)N[C@H](C(=O)N1C[C@H](N(C)C)C[C@H]1C(=O)N[C@H](C#N)C[C@@H]1CCNC1=O)C(C)(C)C [Compound 129] | 6870 nM | > 30000 nM | – | –
CC(C)(C)[C@H](NC(=O)C(F)C(F)(F)F)C(=O)N1C[C@H]2[C@@H]([C@H]1C(=O)N[C@H](C#N)C[C@@H]1CCNC1=O)C2(C)C (stereo partly drawn) [Compound 159] | 30 nM | 134 nM | – | –
CC(C)NC(=S)N[C@H](C(=O)N1C[C@H]2[C@@H]([C@H]1C(=O)N[C@H](C#N)C[C@@H]1CCNC1=O)C2(C)C)C(C)(C)C [Compound 73] | 140 nM | 1320 nM | – | –
CC(C)(C)[C@H](NC(=O)C#Cc1ccc(C(F)(F)F)cc1)C(=O)N1C[C@H]2[C@@H]([C@H]1C(=O)N[C@H](C#N)C[C@@H]1CCNC1=O)C2(C)C [Compound 154] | 180 nM | 511 nM | – | –
CC(C)(C)[C@H](NC(=O)C(c1ccccc1)c1ccccc1)C(=O)N1C[C@H]2[C@@H]([C@H]1C(=O)N[C@H](C#N)C[C@@H]1CCNC1=O)C2(C)C [Compound 18, (1R,2S,5S)—N—((S)-1-cyano-2-((S)-2-oxopyrrolidin-3-yl)ethyl)-3-((S)-2-(2,2-diphenylacetamido)-3,3-dimethylbutanoyl)-6,6-dimethyl-3-azabicyclo[3.1.0]hexane-2-carboxamide] | 1260 nM | 850 nM | 1410 nM | –
CC(C)=C(Cl)C(=O)N[C@H](C(=O)N1C[C@H]2[C@@H]([C@H]1C(=O)N[C@H](C#N)C[C@@H]1CCNC1=O)C2(C)C)C(C)(C)C [Compound 160] | 160 nM | 193 nM | – | –
C=CCS(=O)(=O)N[C@H](C(=O)N1C[C@H]2[C@@H]([C@H]1C(=O)N[C@H](C#N)C[C@@H]1CCNC1=O)C2(C)C)C(C)(C)C [Compound 131] | 120 nM | 657 nM | 180 nM | –
COc1ccccc1S(=O)(=O)N[C@H](C(=O)N1C[C@H]2[C@@H]([C@H]1C(=O)N[C@H](C#N)C[C@@H]1CCNC1=O)C2(C)C)C(C)(C)C [Compound 130] | 93 nM | 1090 nM | 130 nM | 1230 nM
CC(C)(C)[C@H](NC(=O)c1ccc(F)c(F)c1)C(=O)N1C[C@H]2[C@@H]([C@H]1C(=O)N[C@H](C#N)C[C@@H]1CCNC1=O)C2(C)C [Compound 108] | 330 nM | 3900 nM | – | –
CC(C)(C)[C@H](NC(=O)c1cnc2[nH]ccc2c1)C(=O)N1C[C@H]2[C@@H]([C@H]1C(=O)N[C@H](C#N)C[C@@H]1CCNC1=O)C2(C)C [Compound 32] | 3150 nM | 13100 nM | – | –
CC(C)(C)[C@H](NC(=S)NC1CCC1)C(=O)N1C[C@H]2[C@@H]([C@H]1C(=O)N[C@H](C#N)C[C@@H]1CCNC1=O)C2(C)C [Compound 124] | 500 nM | 801 nM | – | –
